# Data from US20100273714A1, “PEPTIDE COMPOUNDS FOR TREATING REFRACTORY STATUS EPILEPTICUS” (SCHWARZ PHARMA AG, priority 2006, published 2010).
# Columns and labels:
# [1] = tested on: self-sustaining status epilepticus (SSSE) in perforant path stimulated rats; conditions: Mazarati et al. 1999, cited from earlier work; for effectiveness against SSSE, delayed administration (in words): administration delayed / later in status epilepticus; for effectiveness against SSSE, early administration (in words): given before or at onset of SSSE / within the first 10 min of status epilepticus
# [2] = tested on: status epilepticus in the rat lithium/pilocarpine model; assay: Lithium/pilocarpine model of status epilepticus; assay type: in vivo, Rats
# [3] = tested on: status epilepticus induced epileptogenesis (spontaneous recurrent seizures) in perforant path stimulated rats; assay: Long term (disease-modifying) effects: spontaneous recurrent seizures at least 6 months after SSSE induction, EEG/video monitoring; assay type: in vivo; conditions: for spike frequency: early treatment, controls 9534±1114; for number of spontaneous recurrent seizures (SRSs) per week: treatment 10 min after perforant path stimulation, vehicle 110±8; for number of seizures per week: not statistically significant
# Method: (§1) The following indices were used to quantify seizure activity: cumulative seizure time (duration of SSSE, subtracting interictal time) and the number of seizure episodes. In addition the number of spontaneous seizures was measured 6 months following induction of SSSE in order to assess status epilepticus induced epileptogenesis.
# SSSE was induced in rats as described in Example 1. After SSSE induction, and at least 6 months wait (“silent period”) the animals were placed in EEG/telemetry/videotape continuously for two weeks for chronic EEG and video monitoring, but the second week, which was more remote from anaesthesia and surgery, was used to calculate seizure frequency (24 hours/day×7). Electrographic seizures were captured by the Harmony software, and were confirmed by offline manual review of the EEG and videotapes. The following indices were counted: total number of spikes of seizures for 7 days of observation, mean seizure duration, light/dark distribution.
# [4] = tested on: self-sustaining status epilepticus (SSSE) in perforant path stimulated rats; assay: Perforant path stimulation model of self-sustaining status epilepticus (acute seizure activity); assay type: in vivo, Male Wistar rats
# Method: Male Wistar rats were implanted with a stimulating electrode into the angular bundle of the perforant path and a recording electrode into the granule cell layer of the dentate gyrus. Perforant path stimulation (PPS) was delivered for 30 or 60 minutes with the following parameters: 10 s, 20 Hz trains of 1 ms, 30 V pulses delivered every minute together with continuous 2 Hz stimulation with the same parameters.
# as §1
# [5] = 50 mg/kg i.p., treatment initiated 40 minutes after PPS, FIG. 1
# [6] = 50 mg/kg, administered 40 min after onset of SSSE
# [7] = given 10 min after perforant path stimulation, doses 10 mg/kg and above
smiles,measurement,setting,value
CN1C(=O)CN=C(c2ccccc2)c2cc(Cl)ccc21 [diazepam],"effectiveness against SSSE, delayed administration (in words)",[1],lost their effectiveness
same,"effectiveness against SSSE, early administration (in words)",[1],highly effective
same,efficacy of diazepam alone (in words),[2]; administered 15 min after onset of status epilepticus,ineffective
O=C1NC(=O)C(c2ccccc2)(c2ccccc2)N1 [phenytoin],"effectiveness against SSSE, delayed administration (in words)",[1],lost their effectiveness
same,"effectiveness against SSSE, early administration (in words)",[1],highly effective
"COC[C@@H](NC(C)=O)C(=O)NCc1ccccc1 [lacosamide, (R)-2-acetamido-N-benzyl-3-methoxypropionamide]",spike frequency,[3]; 3 mg/kg group,7557±1945 spikes/week
same,number of spontaneous recurrent seizures (SRSs) per week,[3]; 3 mg/kg,85±5 SRS/week
same,number of spontaneous recurrent seizures (SRSs) per week,[3]; 10 mg/kg,66±8 SRS/week
same,number of seizures per week,"[3]; 10 mg/kg, treatment 40 min after perforant path stimulation, control 110±8",100±7 seizures per week
same,spike frequency,[3]; 30 mg/kg group,2969±542 spikes/week
same,median number of seizures,"[3]; 30 mg/kg group, treatment 40 min after perforant path stimulation",0
same,number of spontaneous recurrent seizures (SRSs) per week,[3]; 30 mg/kg,42±8 SRS/week
same,number of seizures per week,"[3]; 30 mg/kg, treatment 40 min after perforant path stimulation, control 110±8",67±67 seizures per week
same,spike frequency,[3]; 50 mg/kg group,2588±370 spikes/week
same,median number of seizures,"[3]; 50 mg/kg group, treatment 40 min after perforant path stimulation",0
same,number of spontaneous recurrent seizures (SRSs) per week,[3]; 50 mg/kg,34±6 SRS/week
same,number of seizures per week,"[3]; 50 mg/kg, treatment 40 min after perforant path stimulation, control 110±8",45±29 seizures per week
same,percentage of rats developing chronic epilepsy / spontaneous recurrent seizures,"[3]; 30-50 mg/kg, 6 months after induction of SSSE, vehicle 100%",30%
same,reduction of number of seizures per week (seizure frequency),"[3]; 30-50 mg/kg, after six months, vehicle average 110 seizures per week",60%
same,spike frequency,"[3]; ""mg/kg"" group (dose not given)",3536±380 spikes/week
same,number of animals showing spontaneous recurrent seizures,"[3]; treatment 40 min after perforant path stimulation, two higher dosage groups combined, control 6/6, p<0.05",3/9
same,seizure numbers per week,"[3]; treatment 40 min after perforant path stimulation, two highest treatment groups combined, control 110±8",55±32 seizures per week
same,cumulative seizure duration (in words),[4]; [5],substantial reduction
same,seizure frequency (in words),[4]; [5],substantial reduction
same,reduction in cumulative seizure duration,[4]; [6],40%
same,reduction in seizure frequency,[4]; [6],40%
same,anticonvulsant effect (in words),[4]; given 10 min after perforant path stimulation,effective as an anticonvulsant
same,cumulative time spent seizing after treatment (in words),[4]; [7],reduced
same,number of seizures (in words),[4]; [7],reduced the number of seizures
same,number of seizures (in words),"[4]; late treatment, 40 min after perforant path stimulation",non-significant reduction
same,motor seizure symptoms (in words),"[2]; 50 mg/kg, 10 minutes after onset of status epilepticus",reduced motor seizure symptoms
